Measurements published in PubChem BioAssay (NCI).
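At the GI50, growth is halved. TGI: total growth inhibition.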

What was measured:
Assay in all cases: growth of human tumour cells (NCI), 384-well format
HCC-2998 colon = system: HCC-2998 colon
SF-539 CNS = system: SF-539 CNS
NCI-H226 lung = system: NCI-H226 lung
HS 578T breast = system: HS 578T breast
KM12 colon = system: KM12 colon
MALME-3M melanoma = system: MALME-3M melanoma
SNB-75 CNS = system: SNB-75 CNS
MDA-MB-435 melanoma = system: MDA-MB-435 melanoma
UO-31 renal = system: UO-31 renal
K-562 leukemia = system: K-562 leukemia
HOP-62 NSCLC = system: HOP-62 NSCLC
HL-60(TB) leukemia = system: HL-60(TB) leukemia
HCT-116 colon = system: HCT-116 colon
A549 NSCLC = system: A549 NSCLC
SF-268 CNS = system: SF-268 CNS
M14 melanoma = system: M14 melanoma
NCI/ADR-RES ovarian = system: NCI/ADR-RES ovarian
SN12C renal = system: SN12C renal
UACC-257 melanoma = system: UACC-257 melanoma
SK-MEL-28 melanoma = system: SK-MEL-28 melanoma
EKVX NSCLC = system: EKVX NSCLC
SK-MEL-5 melanoma = system: SK-MEL-5 melanoma
SNB-19 CNS = system: SNB-19 CNS
MDA-MB-231 breast = system: MDA-MB-231 breast
T-47D breast = system: T-47D breast
RPMI-8226 leukemia = system: RPMI-8226 leukemia
UACC-62 melanoma = system: UACC-62 melanoma
SK-OV-3 ovarian = system: SK-OV-3 ovarian
A498 renal = system: A498 renal
SR leukemia = system: SR leukemia
U251 glioblastoma = system: U251 glioblastoma
OVCAR-5 ovarian = system: OVCAR-5 ovarian
COLO 205 colon = system: COLO 205 colon
SF-295 CNS = system: SF-295 CNS
OVCAR-4 ovarian = system: OVCAR-4 ovarian
HCT-15 colon = system: HCT-15 colon
HT29 colon = system: HT29 colon
MOLT-4 leukemia = system: MOLT-4 leukemia
NCI-H23 lung = system: NCI-H23 lung
LOX IMVI melanoma = system: LOX IMVI melanoma
NCI-H322M lung = system: NCI-H322M lung
DU-145 prostate = system: DU-145 prostate
BT-549 breast = system: BT-549 breast
SW-620 colon = system: SW-620 colon
RXF 393 renal = system: RXF 393 renal
OVCAR-3 ovarian = system: OVCAR-3 ovarian
CAKI-1 renal = system: CAKI-1 renal
CCRF-CEM leukemia = system: CCRF-CEM leukemia
HOP-92 NSCLC = system: HOP-92 NSCLC
PC-3 prostate = system: PC-3 prostate
ACHN renal = system: ACHN renal
NCI-H460 NSCLC = system: NCI-H460 NSCLC
786-0 renal = system: 786-0 renal
SK-MEL-2 melanoma = system: SK-MEL-2 melanoma
NCI-H522 lung = system: NCI-H522 lung

For `C[C@@H](NC(=O)/C(C#N)=C/c1ccc([N+](=O)[O-])cc1)c1ccccc1`, the GI50 (HCC-2998 colon) was 1.14 µM, the TGI (HCC-2998 colon) was 2.42 µM and the GI50 (SF-539 CNS) was 2.18 µM. The TGI (SF-539 CNS) was 4.3 µM, the GI50 (NCI-H226 lung) was 2.04 µM and the TGI (NCI-H226 lung) was 4.28 µM. It also gave a GI50 (HS 578T breast) of 1.85 µM, a TGI (HS 578T breast) of 3.41 µM and a GI50 (KM12 colon) of 1.9 µM. It also gave a TGI (KM12 colon) of 3.79 µM, a GI50 (MALME-3M melanoma) of 2.29 µM and a TGI (MALME-3M melanoma) of 4.6 µM. It also gave a GI50 (SNB-75 CNS) of 1.76 µM, a TGI (SNB-75 CNS) of 3.24 µM and a GI50 (MDA-MB-435 melanoma) of 3.26 µM. The TGI (MDA-MB-435 melanoma) was 10.4 µM, the GI50 (UO-31 renal) was 1.34 µM and the TGI (UO-31 renal) was 2.66 µM. The GI50 (K-562 leukemia) was 1.85 µM, the TGI (K-562 leukemia) was 4.04 µM and the GI50 (HOP-62 NSCLC) was 2.4 µM. The TGI (HOP-62 NSCLC) was 5.77 µM, the GI50 (HL-60(TB) leukemia) was 1.78 µM and the TGI (HL-60(TB) leukemia) was 3.18 µM. It also gave a GI50 (HCT-116 colon) of 2.59 µM, a TGI (HCT-116 colon) of 5.95 µM and a GI50 (A549 NSCLC) of 3.04 µM. The TGI (A549 NSCLC) was 8.55 µM, the GI50 (SF-268 CNS) was 2.23 µM and the TGI (SF-268 CNS) was 5.52 µM. For the same compound, the GI50 (M14 melanoma) was 2.37 µM, the TGI (M14 melanoma) was 5.7 µM and the GI50 (NCI/ADR-RES ovarian) was 2.08 µM. For the same compound, the TGI (NCI/ADR-RES ovarian) was 4.65 µM, the GI50 (SN12C renal) was 2.01 µM and the TGI (SN12C renal) was 4.19 µM. For the same compound, the GI50 (UACC-257 melanoma) was 3.39 µM, the TGI (UACC-257 melanoma) was 9.81 µM and the GI50 (SK-MEL-28 melanoma) was 3.48 µM. It also gave a TGI (SK-MEL-28 melanoma) of 9.82 µM, a GI50 (EKVX NSCLC) of 1.91 µM and a TGI (EKVX NSCLC) of 3.55 µM. It also gave a GI50 (SK-MEL-5 melanoma) of 2.09 µM, a TGI (SK-MEL-5 melanoma) of 3.79 µM and a GI50 (SNB-19 CNS) of 2.33 µM. It also gave a TGI (SNB-19 CNS) of 5.78 µM, a GI50 (MDA-MB-231 breast) of 3.03 µM and a TGI (MDA-MB-231 breast) of 7.47 µM. The GI50 (T-47D breast) was 2.75 µM, the TGI (T-47D breast) was 5.85 µM and the GI50 (RPMI-8226 leukemia) was 1.7 µM. The TGI (RPMI-8226 leukemia) was 3.09 µM, the GI50 (UACC-62 melanoma) was 1.82 µM and the TGI (UACC-62 melanoma) was 3.51 µM. For the same compound, the GI50 (SK-OV-3 ovarian) was 2.19 µM, the TGI (SK-OV-3 ovarian) was 4.54 µM and the GI50 (A498 renal) was 1.91 µM. For the same compound, the TGI (A498 renal) was 3.54 µM, the GI50 (SR leukemia) was 1.28 µM and the TGI (SR leukemia) was 2.58 µM. It also gave a GI50 (U251 glioblastoma) of 1.74 µM, a TGI (U251 glioblastoma) of 3.26 µM and a GI50 (OVCAR-5 ovarian) of 2.57 µM. The TGI (OVCAR-5 ovarian) was 6.52 µM, the GI50 (COLO 205 colon) was 1.71 µM and the TGI (COLO 205 colon) was 3.11 µM. It also gave a GI50 (SF-295 CNS) of 1.94 µM, a TGI (SF-295 CNS) of 3.85 µM and a GI50 (OVCAR-4 ovarian) of 1.73 µM. The TGI (OVCAR-4 ovarian) was 3.3 µM, the GI50 (HCT-15 colon) was 1.72 µM and the TGI (HCT-15 colon) was 3.24 µM. The GI50 (HT29 colon) was 1.82 µM, the TGI (HT29 colon) was 3.25 µM and the GI50 (MOLT-4 leukemia) was 1.5 µM. It also gave a TGI (MOLT-4 leukemia) of 2.85 µM, a GI50 (NCI-H23 lung) of 1.83 µM and a TGI (NCI-H23 lung) of 3.39 µM. For the same compound, the GI50 (LOX IMVI melanoma) was 1.93 µM, the TGI (LOX IMVI melanoma) was 3.49 µM and the GI50 (NCI-H322M lung) was 1.98 µM. The TGI (NCI-H322M lung) was 3.82 µM, the GI50 (DU-145 prostate) was 3.2 µM and the TGI (DU-145 prostate) was 9.86 µM. For the same compound, the GI50 (BT-549 breast) was 1.85 µM, the TGI (BT-549 breast) was 3.42 µM and the GI50 (SW-620 colon) was 1.88 µM. For the same compound, the TGI (SW-620 colon) was 3.39 µM, the GI50 (RXF 393 renal) was 1.72 µM and the TGI (RXF 393 renal) was 3.15 µM. The GI50 (OVCAR-3 ovarian) was 1.61 µM, the TGI (OVCAR-3 ovarian) was 3.12 µM and the GI50 (CAKI-1 renal) was 1.72 µM. For the same compound, the TGI (CAKI-1 renal) was 3.32 µM, the GI50 (CCRF-CEM leukemia) was 1.64 µM and the TGI (CCRF-CEM leukemia) was 3.02 µM. It also gave a GI50 (HOP-92 NSCLC) of 3.22 µM, a TGI (HOP-92 NSCLC) of 12.1 µM and a GI50 (PC-3 prostate) of 2 µM. The TGI (PC-3 prostate) was 3.93 µM, the GI50 (ACHN renal) was 1.79 µM and the TGI (ACHN renal) was 3.25 µM. It also gave a GI50 (NCI-H460 NSCLC) of 1.74 µM, a TGI (NCI-H460 NSCLC) of 3.24 µM and a GI50 ([…]-0 renal) of 1.72 µM. It also gave a TGI (786-0 renal) of 3.21 µM, a GI50 (SK-MEL-2 melanoma) of 2.02 µM and a TGI (SK-MEL-2 melanoma) of 3.57 µM. The GI50 (NCI-H522 lung) was 0.271 µM and the TGI (NCI-H522 lung) was 0.964 µM.
